This note sets out measurements from paper PMC12119673, “Apoptotic cell death induced by copper (II), manganese (II) and silver (I) complexes containing bridging dicarboxylate and 1,10-phenanthroline ligands: one of the multi-modes of anticancer activity?” (Biometals, 2025).

This data set can be described thus: In vitro cytotoxicity assessment, alamar blue assay, 24-h exposure. It counts as cell-based, human. As to conditions: human, MCF-12A cells; MCF-12A, 24-h exposure, 50% reduction in metabolic activity, mean ± SD (N = 3); read-out: Cytotoxic activity IC50 ± SD. On the procedure: The MCF-7 (human breast cancer) and MCF-12A (non-tumourigenic human breast) cell lines were obtained from the Technological University Dublin (TUDublin, City Campus) internal cell bank and commercially from the American Type Culture Collection (ATCC), respectively. Both cell lines were cultured using Dulbecco’s Modified Eagle Medium/Nutrient Mixture F-12 Ham (DMEM-F12) (Sigma, Ireland) (Cat# D6421) media. The MCF-7 media was supplemented with 10% Foetal Bovine Serum (Sigma, Ireland) (Cat# F7524) and 1% L-Glutamine (Sigma, Ireland) (Cat# 592020C). The MCF-12A media was supplemented with 5% Equine Serum (Sigma, Ireland) (Cat# H0146) 1.25% L-Glutamine (Sigma, Ireland) (Cat# 592020C), 20 ng/ml Human Epidermal Growth Factor (Thermo Fisher Scientific, Ireland) (Cat# PHG0313), 0.01 mg/ml insulin (Thermo Fisher Scientific, Ireland)(Cat# 12585014) and 500 ng/ml hydrocortisone (Sigma, Ireland) (Cat# H0888). The cells were grown in T75 culture flasks (Sarstedt, Germany) (Cat# 83.3911.002) and were incubated in a 5% CO2 atmosphere at 37 ℃. The cells were monitored daily, and once 80–90% confluence was reached, they were subcultured with an enzymatic dissociation method using trypsin. Both cell lines were routinely subcultured for 1 week prior to beginning experimental work, to ensure the cells had adapted to the environment.
The MCF-7 and MCF-12A cells were seeded at a density of 1 × 10^4 in 96-well flat bottom plates (Sarstedt, Germany) (Cat# 83.3924) and incubated in a 5% CO2 atmosphere at 37 ℃ for 24 h prior to exposure to the complexes. Following the incubation period, the media was removed, and cells were washed with sterile phosphate-buffered saline (PBS). […] All agents were diluted in supplemented cell culture media, and the cells were exposed to a concentration range of 0.5 μM–100 μM for 24 h in the conditions outlined previously. Following the exposure period, the drug-containing media was removed, and cells were washed three times with PBS, ensuring complete removal of the test agents. A 5% working solution of Alamar Blue (Thermo Fisher Scientific, Ireland) (Cat# DAL1100) was prepared in dark conditions using unsupplemented cell culture media. 100 μl of the solution was added to each well, and the cells were incubated for 3 h. Following incubation, absorbance values were obtained using a Varioskan Lux (Thermo Scientific, USA) at 570 nm and 600 nm wavelengths. Each exposure was carried out in triplicate plates and was repeated three independent times.
The software packages Microsoft^Ⓡ Excel (USA) and GraphPad Prism (Ver. 10.0.3) (GraphPad, USA) were used to analyse the alamar blue data. The treated sample values were first normalised to the negative control values. After normalisation, the mean and standard deviations (SD) were established using Microsoft^Ⓡ Excel. The statistical analysis package GraphPad was then used to determine the IC25 and IC50 concentrations. […] A p value of 0.05 or lower is considered to be statistically significant.
For orientation: The colour change of resazurin is a common sign of viable cells or microbes.

The IC50 is the midpoint of a concentration-inhibition curve. `c1cnc2c(c1)ccc1cccnc12` [Phen, 1,10-Phenanthroline]: the IC50 at 24 h worked out at 20.9 ± 1.96 µM.
